For the experiment, the system named is T1, nitrile hydratase.
T1 construct: gene nthA; native intracellular enzyme purified from R. erythropolis MTCC 1526 grown with CoCl2; subunits about 29 kDa (alpha) and 30 kDa (beta); native 65 kDa
As to the kind of experiment: nicotinamide formation by HPLC, Lineweaver-Burk plot. Type of experiment: biochemical, Rhodococcus erythropolis. Conditions: pH 7.0, 20 mM phosphate buffer, 25 °C (Fig. 6 legend says 20 °C); 0.2-2.0 mM substrate.

`N#Cc1cccnc1` [3-cyanopyridine]: the Km (usually the substrate concentration at which the rate is half of its maximum) worked out at 624 µM.
